“Also recorded” adds a separate entry of the source.
Tests used:
A431 cells = assay: DPP-3 in A431 cells, starvation and EGF stimulation (flow cytometry, microscopy); assay type: cell-based, human; details: A431, starved and non-starved, 1 μM inhibitor, 5 μM DPP-3
Experimental: (§1) Cells were plated on a 10 cm dish with 10 mL of DMEM/High Glucose (10% FBS, 1% P/S, L-Glutamine, Sodium pyruvate) 36-48 hours prior to the day of experiment and maintained at 37° C., 5% CO2 so as to obtain 80-90% confluency. Cells were washed with DPBS and trypsinized with 1 mL 0.05% Trypsin. 5 mL of DMEM/High Glucose (10% FBS, L-Glutamine, Sodium pyruvate) was added and cells were spun down at 1200 rpm for 3 min. Media was discarded and cells were resuspended in 5 mL of Live Cell Imaging Solution and again spun down at 1200 rpm for 3 min. The cells pellets obtained were resuspended in 3-5 mL of Live Cell Imaging Solution and divided into 500 μL aliquots. The aliquots were treated with either 0.2% DMSO carrier or 1 μM of PalmB/ML348 or 1 μM/5 μM of ML349 inhibitor. After 30 min of incubation at room temperature, 1 μL of 2.5 mM DPP-3 in DMSO was added to each aliquot for a final concentration of 5 μM, and the solutions were mixed. After 5 min incubation at room temperature, fluorescence signal in FITC channel was measured for 10000 cells (5000 for HeLa experiments) on a LSR-Fortessa 4-15 HTS (BD digital instrument, 488 nm laser with 530/30 nm filter for FITC; BD, Franklin Lakes, N.J., United States of America). For analyzing DPP2 in HEK293T cells, the aliquots were treated with either 0.2% DMSO carrier or 2 μM of PalmB, 5 or 20 μM of ML348/ML349 and then analyzed by the protocol as mentioned above. Data was analyzed by FlowJo software version 10.0.8. For comparison of A431 starved versus non-starved, parallel 10 cm dishes of A431 cells were plated in 10 mL of DMEM (high glucose, 10% FBS, 1% P/S), and grown for 36 h. The growth media was removed, and replaced by 10 mL of either DMEM (High glucose) with 10% FBS to maintain “growth” conditions, or DMEM (High glucose) without FBS respectively for “starvation” conditions, and incubated for 14 h. After trypsinization, both plates were treated with 5 mL of DMEM (high glucose) for spinning the cells down, and further processing and analysis were performed as described above by flow cytometry.
Parallel 35 mm glass bottom dishes (D35-10-1.5-N; Cellvis, Mountain View, Calif., United States of America) of A431 cells (450,000) were plated in 2 mL of DMEM glutamax (high glucose, 10% FBS, 1% P/S), and grown for 36 h. The growth media was removed, and replaced by 1.5 mL of either DMEM (High glucose) with 10% FBS to maintain “growth” conditions, or DMEM (High glucose) without FBS respectively for “starvation” conditions, and incubated for 24 h. […] For data analysis, the average fluorescence intensity per image in each experimental condition was obtained by selecting ROIs in the brightfield image. For display, the data were normalized to the average fluorescence intensity of the control conditions. […]

MCF-7 cells = assay: Flow cytometry of DPP-3 in MCF-7 cells; assay type: cell-based, human; details: 1 μM inhibitor, 5 μM DPP-3, 5 min
Experimental: as §1

Row | Structure (SMILES) | effect of inhibitor on depalmitoylation signal measured by DPP-3 (A431 cells) | effect of inhibitor on depalmitoylation signal measured by DPP-3 (MCF-7 cells) | effect of inhibitor on depalmitoylation signal measured by DPP-3 (A431 cells; listed as M348)
1 | CCCCCCCCCC[C@@H]1C(=O)O[C@H]1CCc1ccc(OC)c(OC)c1 [PalmB, palmostatin B] | knocked down; also recorded: knocks down the depalmitoylation signal | knocks down the depalmitoylation signal | 
2 | O=C(CN1CCN(C(=O)c2ccco2)CC1)Nc1cc(C(F)(F)F)ccc1Cl [ML348] | knocks down the depalmitoylation signal | knocks down the depalmitoylation signal | knocked down

From patent US10413583B2, “Synthetic substrates for enzymes that catalyze reactions of modified cysteines and related methods” (The University of Chicago, priority 2016, dated 2019)
